Experimental data: article PMC9403976, “Elucidating the path to Plasmodium prolyl-tRNA synthetase inhibitors that overcome halofuginone resistance” (Nature Communications, 2022)
“And” between values parts separate entries of the source, which are not always exact repeats. Identical values can stand only once. Like-named read-outs stand apart in the source and are kept apart here. Marks after values point to notes of the source that are not given here.

What was measured:
P. falciparum Dd2-2D4 = assay: P. falciparum asexual blood stage (ABS) growth assay, SYBR Green, 72 h, wild-type parasites; type: cell-based, Plasmodium falciparum
PfcProRS = biological target: T1, PfcProRS (Plasmodium falciparum, UniProt Q8I5R7); type: binding; conditions: for Normalized response, dose-response replicates (SI Fig 14): replicates 1-3
T1 construct: made in house; host or cells: E. coli SoluBL-21
T1 sequence (Q8I5R7 249-746): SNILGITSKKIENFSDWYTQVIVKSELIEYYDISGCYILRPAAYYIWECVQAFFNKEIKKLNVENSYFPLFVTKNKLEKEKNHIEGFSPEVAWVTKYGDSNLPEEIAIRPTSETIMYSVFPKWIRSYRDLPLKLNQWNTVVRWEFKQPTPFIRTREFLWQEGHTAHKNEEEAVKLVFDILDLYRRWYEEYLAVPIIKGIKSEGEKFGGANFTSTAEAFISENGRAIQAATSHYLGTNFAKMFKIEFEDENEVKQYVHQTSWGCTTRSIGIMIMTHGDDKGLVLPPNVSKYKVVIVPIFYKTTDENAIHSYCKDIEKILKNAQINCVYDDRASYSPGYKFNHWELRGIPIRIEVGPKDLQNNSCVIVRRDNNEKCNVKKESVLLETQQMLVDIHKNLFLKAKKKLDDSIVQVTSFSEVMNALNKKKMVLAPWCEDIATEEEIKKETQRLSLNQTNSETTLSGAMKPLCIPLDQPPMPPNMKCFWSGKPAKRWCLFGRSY

[1] = test system: halofuginone-induced P. falciparum (elevated proline homeostasis); assay: P. falciparum ABS growth assay, SYBR Green, 72 h, halofuginone-induced parasites; type: cell-based, Plasmodium falciparum; conditions: for parasite growth, dose-response point: Halofuginone-Induced (HFG-Induced)
Procedure, shortened: (§1)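 Growth inhibition of the resistant and induced Dd2 lines is measured over 72 h in triplicate dose-response, starting at 1% parasitemia and 1% hematocrit. SYBR Green 1 staining gives the fluorescence readout, normalized between 10 μM dihydroartemisinin and no-compound wells.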

[2] = test system: HFGR-I P. falciparum (elevated proline homeostasis and PfcProRS^L482H); assay: P. falciparum ABS growth assay, SYBR Green, 72 h, HFGR-I parasites; type: cell-based, Plasmodium falciparum; conditions: for parasite growth, dose-response point: HFGR-I
Procedure, shortened: as §1

HsProRS = HsProRS (Homo sapiens, UniProt P07814); assay: TR-FRET ligand displacement assay with tracer MAT379 (CoraFluor-1-Halo and anti-His6 antibody formats); type: binding; set-up: made in house; host or cells: E. coli SoluBL-21; conditions: for normalized TR-FRET signal (dose-response replicates): SI Fig 17a
HsProRS, sequence (P07814 996-1512): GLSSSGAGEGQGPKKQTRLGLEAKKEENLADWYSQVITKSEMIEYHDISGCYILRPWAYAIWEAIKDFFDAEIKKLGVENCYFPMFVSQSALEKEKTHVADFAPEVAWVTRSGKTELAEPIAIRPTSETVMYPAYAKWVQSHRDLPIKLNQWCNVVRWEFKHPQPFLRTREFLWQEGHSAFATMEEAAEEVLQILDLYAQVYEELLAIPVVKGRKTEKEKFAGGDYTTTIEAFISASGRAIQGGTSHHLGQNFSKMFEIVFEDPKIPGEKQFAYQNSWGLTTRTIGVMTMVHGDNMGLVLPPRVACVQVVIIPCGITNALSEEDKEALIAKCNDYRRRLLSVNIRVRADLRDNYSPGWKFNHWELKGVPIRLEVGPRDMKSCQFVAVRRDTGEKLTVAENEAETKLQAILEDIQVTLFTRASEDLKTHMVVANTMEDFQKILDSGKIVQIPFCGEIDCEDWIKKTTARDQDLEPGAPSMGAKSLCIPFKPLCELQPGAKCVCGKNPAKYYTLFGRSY

[3] = 10 μM, compound had <50% inhibition
[4] = Log[inhibitor] (M) -5.000, series r4-r15

For `CC(C)(C)OC(=O)N1CCC[C@H]1C(=O)NC1CCN(C(=O)Nc2nccnc2C(=O)NC2Cc3ccccc3C2)CC1` [compound 31], the “percent growth at 10 μM, Dd2 wt” value (P. falciparum Dd2-2D4; [3]) was 102%^b, the EC50 (P. falciparum Dd2-2D4; Plasmodium falciparum, wildtype (Dd2-2D4), bound given in μM, read-out: Dd2 EC50 wildtype (Dd2-2D4), bound) was greater than 10 µM and the “% signal at 10 μM, wildtype (Dd2-2D4)” value (P. falciparum Dd2-2D4; wildtype (Dd2-2D4), 10 μM) was 102%. The “Normalized response, dose-response replicates (SI Fig 14)” value (shortened to “Normalized response”) (PfcProRS; Log[inhibitor] (M) -5.000) was 5.64E-01 and 5.99E-01 and 6.18E-01, the “Normalized response” value (PfcProRS; Log[inhibitor] (M) -5.301) was 6.96E-01 and 6.54E-01 and 6.55E-01 and the “Normalized response” value (PfcProRS; Log[inhibitor] (M) -5.601) was 8.77E-01 and 8.39E-01 and 9.75E-01. For the same molecule, the “Normalized response” value (PfcProRS; Log[inhibitor] (M) -5.904) was 9.20E-01 and 8.45E-01 and 8.88E-01, the “Normalized response” value (PfcProRS; Log[inhibitor] (M) -6.208) was 9.89E-01 and 9.27E-01 and 1.07E+00 and the “Normalized response” value (PfcProRS; Log[inhibitor] (M) -6.509) was 1.00E+00 and 9.45E-01 and 8.96E-01. The “Normalized response” value (PfcProRS; Log[inhibitor] (M) -6.796) was 8.17E-01 and 9.17E-01 and 9.69E-01, the “Normalized response” value (PfcProRS; Log[inhibitor] (M) -7.108) was 9.90E-01 and 9.44E-01 and 8.89E-01 and the “Normalized response” value (PfcProRS; Log[inhibitor] (M) -7.409) was 9.05E-01 and 8.67E-01 and 8.30E-01. The “Normalized response” value (PfcProRS; Log[inhibitor] (M) -7.710) was 9.25E-01 and 1.08E+00 and 9.24E-01, the “Normalized response” value (PfcProRS; Log[inhibitor] (M) -8.000) was 8.19E-01 and 1.06E+00 and 9.65E-01 and the “Normalized response” value (PfcProRS; Log[inhibitor] (M) -8.301) was 1.15E+00 and 1.07E+00 (2×). For the same molecule, the “Normalized response” value (PfcProRS; Log[inhibitor] (M) -8.602) was 1.06E+00 and 1.03E+00 and 1.05E+00, the “Normalized response” value (PfcProRS; Log[inhibitor] (M) -9.000) was 8.95E-01 and 9.81E-01 and 1.04E+00 and the “Normalized response” value (PfcProRS; Log[inhibitor] (M) -9.301) was 1.02E+00 and 9.15E-01 and 1.14E+00. The “PfcProRS -- best Kd” value (PfcProRS; SI Fig 16a, values on -log scale) was 5.701, the “percent growth at 10 μM, Dd2 Halofuginone-induced” value [1, 3] was 98%^b and the “parasite growth, dose-response point” value [1, 4] was 103 and 98 and 92. The “parasite growth, dose-response point” value ([1]; Log[inhibitor] (M) -5.301) was 107 and 109 and 115, the “parasite growth, dose-response point” value ([1]; Log[inhibitor] (M) -5.602) was 124 and 110 and 116 and the “parasite growth, dose-response point” value ([1]; Log[inhibitor] (M) -5.903) was 117 and 106 and 104. The “parasite growth, dose-response point” value ([1]; Log[inhibitor] (M) -6.204) was 111 and 107 and 99, the “parasite growth, dose-response point” value ([1]; Log[inhibitor] (M) -6.505) was 98 (2×) and 104 and the “parasite growth, dose-response point” value ([1]; Log[inhibitor] (M) -6.806) was 109 and 112 and 103. For the same molecule, the “parasite growth, dose-response point” value ([1]; Log[inhibitor] (M) -7.107) was 105 and 103 and 108, the “parasite growth, dose-response point” value ([1]; Log[inhibitor] (M) -7.408) was 116 and 109 and 103 and the “parasite growth, dose-response point” value ([1]; Log[inhibitor] (M) -7.709) was 115 and 100 and 119. For the same molecule, the “parasite growth, dose-response point” value ([1]; Log[inhibitor] (M) -8.010) was 104 and 100 and 101, the “parasite growth, dose-response point” value ([1]; Log[inhibitor] (M) -8.311) was 107 and 102 and 101 and the EC50 ([1]; Plasmodium falciparum, DD2, halofuginone-induced, bound given in μM, read-out: Dd2 EC50 halofuginone-induced, bound) was greater than 10 µM. The “% signal at 10 μM, halofuginone-induced” value ([1]; halofuginone-induced, 10 μM) was 97.7%, the “percent growth at 10 μM, Dd2 HFGR-I” value [2, 3] was 103%^b and the “% signal at 10 μM, HFGR1” value ([2]; HFGR1, 10 μM) was 103%. For the same molecule, the “parasite growth, dose-response point” value [2, 4] was 106 and 104 and 99, the “parasite growth, dose-response point” value ([2]; Log[inhibitor] (M) -5.301) was 101 and 100 and the “parasite growth, dose-response point” value ([2]; Log[inhibitor] (M) -5.602) was 105 and 102 and 104. For the same molecule, the “parasite growth, dose-response point” value ([2]; Log[inhibitor] (M) -5.903) was 95 and 102 and 101, the “parasite growth, dose-response point” value ([2]; Log[inhibitor] (M) -6.204) was 104 and 99 and 98 and the “parasite growth, dose-response point” value ([2]; Log[inhibitor] (M) -6.505) was 99 and 95 and 97. For the same molecule, the “parasite growth, dose-response point” value ([2]; Log[inhibitor] (M) -6.806) was 108 and 106 and 107, the “parasite growth, dose-response point” value ([2]; Log[inhibitor] (M) -7.107) was 106 and 105 and the “parasite growth, dose-response point” value ([2]; Log[inhibitor] (M) -7.408) was 109 and 104 and 106. The “parasite growth, dose-response point” value ([2]; Log[inhibitor] (M) -7.709) was 108 and 106, the “parasite growth, dose-response point” value ([2]; Log[inhibitor] (M) -8.010) was 103 and 105 and the “parasite growth, dose-response point” value ([2]; Log[inhibitor] (M) -8.311) was 108 and 105 and 104. For the same molecule, the EC50 ([2]; Plasmodium falciparum, DD2, HFGR1, bound given in μM, read-out: Dd2 EC50 HFGR1, bound) was greater than 10 µM, the “HsProRS % signal at 10 μM, + 100 μM proline” value (HsProRS; + 100 μM proline, 10 μM) was 59.4% and the Kd (HsProRS; HsProRS (KD [nM]) −, absence of substrates, 250 nM MAT379) was 5130 nM. For the same molecule, the Kd (HsProRS; HsProRS KD + 100 μM proline, bound, + 100 μM proline, bound given in μM) was greater than 5090 nM, the “normalised signal, dose-response point (Fig 4d)” value (“normalised signal” for short) (HsProRS; Log[inhibitor] (M) -5.000, series of 31) was 4.79E-01 and 4.46E-01 and the “normalised signal” value (HsProRS; Log[inhibitor] (M) -5.286) was 6.67E-01 and 6.31E-01. For the same molecule, the “normalised signal” value (HsProRS; Log[inhibitor] (M) -5.574) was 7.84E-01 and 7.77E-01, the “normalised signal” value (HsProRS; Log[inhibitor] (M) -5.862) was 8.87E-01 and 8.96E-01 and the “normalised signal” value (HsProRS; Log[inhibitor] (M) -6.151) was 9.64E-01 and 9.65E-01. The “normalised signal” value (HsProRS; Log[inhibitor] (M) -6.428) was 9.34E-01 and 9.44E-01, the “normalised signal” value (HsProRS; Log[inhibitor] (M) -6.729) was 9.61E-01 and 9.47E-01 and the “normalised signal” value (HsProRS; Log[inhibitor] (M) -7.006) was 9.42E-01 and 8.63E-01. For the same molecule, the “normalised signal” value (HsProRS; Log[inhibitor] (M) -7.295) was 9.55E-01 and 9.92E-01, the “normalised signal” value (HsProRS; Log[inhibitor] (M) -7.585) was 1.05E+00 and 9.07E-01 and the “normalised signal” value (HsProRS; Log[inhibitor] (M) -7.875) was 9.50E-01 and 9.36E-01. The “normalised signal” value (HsProRS; Log[inhibitor] (M) -8.135) was 9.31E-01 and 9.40E-01, the “normalised signal” value (HsProRS; Log[inhibitor] (M) -8.477) was 9.84E-01 and 9.46E-01 and the “normalised signal” value (HsProRS; Log[inhibitor] (M) -8.699) was 8.68E-01 and 9.88E-01. For the same molecule, the “normalised signal” value (HsProRS; Log[inhibitor] (M) -9.176) was 1.01E+00 and 1.00E+00, the “normalised signal” value (HsProRS; Log[inhibitor] (M) -9.363) was 9.70E-01 and 9.49E-01 and the “normalized TR-FRET signal (dose-response replicates)” value (shortened to “normalized TR-FRET signal”) (HsProRS; Log[inhibitor] (M) -5.000) was 3.75E-01 and 3.29E-01 and 2.94E-01. The “normalized TR-FRET signal” value (HsProRS; Log[inhibitor] (M) -5.301) was 5.13E-01 and 4.93E-01 and 4.68E-01, the “normalized TR-FRET signal” value (HsProRS; Log[inhibitor] (M) -5.601) was 7.38E-01 and 6.61E-01 and 6.36E-01 and the “normalized TR-FRET signal” value (HsProRS; Log[inhibitor] (M) -5.904) was 7.87E-01 and 7.39E-01 and 7.57E-01. For the same molecule, the “normalized TR-FRET signal” value (HsProRS; Log[inhibitor] (M) -6.208) was 8.48E-01 and 8.27E-01 and 8.24E-01, the “normalized TR-FRET signal” value (HsProRS; Log[inhibitor] (M) -6.509) was 8.55E-01 and 8.71E-01 and 8.75E-01 and the “normalized TR-FRET signal” value (HsProRS; Log[inhibitor] (M) -6.796) was 8.61E-01 and 8.99E-01 and 9.13E-01. For the same molecule, the “normalized TR-FRET signal” value (HsProRS; Log[inhibitor] (M) -7.108) was 8.48E-01 and 8.44E-01 and 8.72E-01, the “normalized TR-FRET signal” value (HsProRS; Log[inhibitor] (M) -7.409) was 9.07E-01 and 8.89E-01 and 8.65E-01 and the “normalized TR-FRET signal” value (HsProRS; Log[inhibitor] (M) -7.710) was 8.96E-01 and 8.93E-01 and 8.29E-01. For the same molecule, the “normalized TR-FRET signal” value (HsProRS; Log[inhibitor] (M) -8.000) was 9.41E-01 and 8.72E-01 and 9.37E-01, the “normalized TR-FRET signal” value (HsProRS; Log[inhibitor] (M) -8.301) was 8.90E-01 (2×) and 9.30E-01 and the “normalized TR-FRET signal” value (HsProRS; Log[inhibitor] (M) -8.602) was 9.13E-01 and 9.30E-01 and 9.15E-01. The “normalized TR-FRET signal” value (HsProRS; Log[inhibitor] (M) -9.000) was 9.52E-01 and 8.88E-01 and 9.53E-01 and the “normalized TR-FRET signal” value (HsProRS; Log[inhibitor] (M) -9.301) was 9.64E-01 and 9.01E-01 and 8.76E-01.
